Assay results from US20240025906A1 (NEURON23, INC., priority 2022, published 2024).

How the values were obtained:
[1] = target: T1, TYK2 JH2 (Homo sapiens, UniProt P29597); assay: TYK2 JH2 binding assay (KINOMEscan KdELECT competitive binding); details: TYK2 JH2 domain, KINOMEscan KdELECT (Assay A); read-out: Biochemical TYK2_DiscoverX_JH2_BND_Kd
T1 construct: purchased DiscoverX (KINOMEscan KdELECT service); host or cells: E. coli BL21-derived (T7 phage display) or HEK-293
Method in brief: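 The assay measures displacement of DNA- or phage-tagged TYK2 pseudokinase domain from an affinity resin; compound binding lowers the amount captured, read by qPCR. Incubation lasts 1 h at room temperature.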

[2] = test system: JAK1/TYK2 pSTAT5 (Tyr694/699) in THP-1 cell line; assay: IFNa-stimulated JAK1/TYK2 pSTAT5 (Tyr694/699) inhibition cellular assay, AlphaLISA; type: cell-based; details: Homo sapiens; THP-1 cells, IFNa-stimulated, AlphaLISA (Assay B); read-out: Cellular_THP1_IFNa-pSTATS_TYK2
Method in brief: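 Compound dilutions were dispensed first, and HBSS-suspended THP-1 cells were added on top (final top concentration 10000 nM, 6-fold series). After 1 h at 37 °C, IFNa (100 ng/mL as added) was applied for 30 min. Cells were then lysed and pSTAT5 was quantified by AlphaLISA.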

T1 sequence (P29597 589-875 limits assumed): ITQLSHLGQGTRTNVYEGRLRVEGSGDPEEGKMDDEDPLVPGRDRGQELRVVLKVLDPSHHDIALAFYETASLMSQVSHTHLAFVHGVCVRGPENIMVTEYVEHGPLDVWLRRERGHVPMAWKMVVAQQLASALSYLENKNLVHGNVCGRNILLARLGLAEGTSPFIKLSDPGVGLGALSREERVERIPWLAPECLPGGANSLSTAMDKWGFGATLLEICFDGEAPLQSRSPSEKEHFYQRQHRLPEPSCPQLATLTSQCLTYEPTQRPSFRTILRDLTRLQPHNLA

CNc1ncc(-c2ccc(OCc3ccncc3)cc2)c2cc(NC(=O)C3CC3)ncc12 [Example 867, N-(8-(methylamino)-5-(4-(pyridin-4-ylmethoxy)phenyl)-2,7-naphthyridin-3-yl)cyclopropanecarboxamide]
Kd [1]: ≤ 0.1 µM
IC50 [2]: ≤ 0.5 µM

CNc1ncc(-c2ccc(COc3ccncc3)cc2)c2cc(NC(=O)C3CC3)ncc12 [Example 868, N-(8-(methylamino)-5-(4-((pyridin-4-yloxy)methyl)phenyl)-2,7-naphthyridin-3-yl)cyclopropanecarboxamide]
Kd [1]: ≤ 0.1 µM
IC50 [2]: ≤ 0.5 µM

CNc1ncc(-c2ccc(Cn3ccc(=O)cc3)cc2)c2cc(NC(=O)C3CC3)ncc12 [Example 869, N-(8-(methylamino)-5-(4-((4-oxopyridin-1(4H)-yl)methyl)phenyl)-2,7-naphthyridin-3-yl)cyclopropanecarboxamide]
Kd [1]: ≤ 0.1 µM
IC50 [2]: > 0.5 µM

CNc1ncc(-c2ccc(-c3cnnn3C)cc2)c2cc(NC(=O)C3CC3)ncc12 [Example 870, N-(5-(4-(1-methyl-1H-1,2,3-triazol-5-yl)phenyl)-8-(methylamino)-2,7-naphthyridin-3-yl)cyclopropanecarboxamide]
Kd [1]: ≤ 0.1 µM
IC50 [2]: ≤ 0.5 µM

CNc1ncc(-c2ccc(-c3cn(C)nn3)cc2)c2cc(NC(=O)C3CC3)ncc12 [Example 871, N-(5-(4-(1-methyl-1H-1,2,3-triazol-4-yl)phenyl)-8-(methylamino)-2,7-naphthyridin-3-yl)cyclopropanecarboxamide]
Kd [1]: ≤ 0.1 µM
IC50 [2]: ≤ 0.5 µM

CNc1ncc(-c2nn3ccnc3s2)c2cc(NC(=O)C3CC3)ncc12 [Example 872, N-(5-(imidazo[2,1-b][1,3,4]thiadiazol-2-yl)-8-(methylamino)-2,7-naphthyridin-3-yl)cyclopropanecarboxamide]
Kd [1]: ≤ 0.1 µM
IC50 [2]: ≤ 0.5 µM

CNc1ncc(-c2nn3c(C)ncc3o2)c2cc(NC(=O)C3CC3)ncc12 [Example 873, N-(8-(methylamino)-5-(5-methylimidazo[5,1-b][1,3,4]oxadiazol-2-yl)-2,7-naphthyridin-3-yl)cyclopropanecarboxamide]
Kd [1]: ≤ 0.1 µM
IC50 [2]: ≤ 0.5 µM

CNc1ncc(-c2nc3c(o2)CCC(OC)C3)c2cc(NC(=O)C3CC3)ncc12 (stereo not shown) [Example 874, N-(5-(5-methoxy-4,5,6,7-tetrahydrobenzo[d]oxazol-2-yl)-8-(methylamino)-2,7-naphthyridin-3-yl)cyclopropanecarboxamide]
Kd [1]: ≤ 0.1 µM
IC50 [2]: ≤ 0.5 µM

CNc1ncc(-c2cc3cc(OC)ccn3n2)c2cc(NC(=O)C3CC3)ncc12 [Example 875, N-(5-(5-methoxypyrazolo[1,5-a]pyridin-2-yl)-8-(methylamino)-2,7-naphthyridin-3-yl)cyclopropanecarboxamide]
Kd [1]: ≤ 0.1 µM
IC50 [2]: ≤ 0.5 µM

CCNc1ncc(-c2cc3ccc(N4CCOCC4)cn3n2)c2cc(NC(=O)C3CC3)ncc12 [Example 876, N-(8-(ethylamino)-5-(6-morpholinopyrazolo[1,5-a]pyridin-2-yl)-2,7-naphthyridin-3-yl)cyclopropanecarboxamide]
Kd [1]: ≤ 0.1 µM
IC50 [2]: ≤ 0.5 µM

CNc1ncc(-c2cc3ccc(OC)cn3n2)c2cc(NC(=O)[C@H]3C[C@H]3C)ncc12 [Example 877, (1S,2R)—N-(5-(6-methoxypyrazolo[1,5-a]pyridin-2-yl)-8-(methylamino)-2,7-naphthyridin-3-yl)-2-methylcyclopropane-1-carboxamide]
Kd [1]: ≤ 0.1 µM
IC50 [2]: ≤ 0.5 µM

CNc1ncc(-c2cnc3ccc(OC)cn23)c2cc(NC(=O)[C@H]3C[C@H]3C)ncc12 [Example 878, (1S,2R)—N-(5-(6-methoxyimidazo[1,2-a]pyridin-3-yl)-8-(methylamino)-2,7-naphthyridin-3-yl)-2-methylcyclopropane-1-carboxamide]
Kd [1]: ≤ 0.1 µM
IC50 [2]: > 0.5 µM

CNc1ncc(-c2cn3cc(OC)ccc3n2)c2cc(NC(=O)C3CC3)ncc12 [Example 879, N-(5-(6-methoxyimidazo[1,2-a]pyridin-2-yl)-8-(methylamino)-2,7-naphthyridin-3-yl)cyclopropanecarboxamide]
Kd [1]: ≤ 0.1 µM
IC50 [2]: ≤ 0.5 µM

CNc1ncc(-c2cn3cc(N4CCOCC4)ccc3n2)c2cc(NC(=O)C3CC3)ncc12 [Example 880, N-(8-(methylamino)-5-(6-morpholinoimidazo[1,2-a]pyridin-2-yl)-2,7-naphthyridin-3-yl)cyclopropanecarboxamide]
Kd [1]: ≤ 0.1 µM
IC50 [2]: ≤ 0.5 µM

CNc1ncc(-c2cc(-c3ccccc3)[nH]n2)c2cc(NC(=O)C3CC3)ncc12 [Example 881, N-(8-(methylamino)-5-(5-phenyl-1H-pyrazol-3-yl)-2,7-naphthyridin-3-yl)cyclopropanecarboxamide]
Kd [1]: ≤ 0.1 µM
IC50 [2]: > 0.5 µM

CNc1ncc(C#Cc2ccc3nnn(C)c3c2)c2cc(NC(=O)C3CC3)nnc12 [Example 882, N-(5-((1-methyl-1H-benzo[d][1,2,3]triazol-6-yl)ethynyl)-8-(methylamino)pyrido[3,4-c]pyridazin-3-yl)cyclopropanecarboxamide]
Kd [1]: ≤ 0.1 µM
IC50 [2]: ≤ 0.5 µM

CNc1ncc(C#Cc2ccc(N3CCO[C@H](C)C3)cc2)c2cc(NC(=O)C3CC3)nnc12 [Example 883, (R)—N-(8-(methylamino)-5-((4-(2-methylmorpholino)phenyl)ethynyl)pyrido[3,4-c]pyridazin-3-yl)cyclopropanecarboxamide]
Kd [1]: ≤ 0.1 µM
IC50 [2]: ≤ 0.5 µM

CNc1ncc(C#Cc2ccc(OC)cn2)c2cc(NC(=O)C3CC3)nnc12 [Example 884, N-(5-((5-methoxypyridin-2-yl)ethynyl)-8-(methylamino)pyrido[3,4-c]pyridazin-3-yl)cyclopropanecarboxamide]
Kd [1]: ≤ 0.1 µM
IC50 [2]: ≤ 0.5 µM

CNc1ncc(-c2nc3ccc(N4CCOCC4)cn3n2)c2cc(NC(=O)C3CC3)nnc12 [Example 885, N-(8-(methylamino)-5-(6-morpholino-[1,2,4]triazolo[1,5-a]pyridin-2-yl)pyrido[3,4-c]pyridazin-3-yl)cyclopropanecarboxamide]
Kd [1]: ≤ 0.1 µM
IC50 [2]: ≤ 0.5 µM

CNc1ncc(-c2nc3ccc(N4CCOCC4)cn3n2)c2cc(NC(=O)C3(F)CC3)nnc12 [Example 886, 1-fluoro-N-(8-(methylamino)-5-(6-morpholino-[1,2,4]triazolo[1,5-a]pyridin-2-yl)pyrido[3,4-c]pyridazin-3-yl)cyclopropane-1-carboxamide]
Kd [1]: ≤ 0.1 µM
IC50 [2]: ≤ 0.5 µM

CNc1ncc(-c2nc3c(F)cccn3n2)c2cc(NC(=O)C3CC3)nnc12 [Example 887, N-(5-(8-fluoro-[1,2,4]triazolo[1,5-a]pyridin-2-yl)-8-(methylamino)pyrido[3,4-c]pyridazin-3-yl)cyclopropanecarboxamide]
Kd [1]: ≤ 0.1 µM
IC50 [2]: ≤ 0.5 µM

CNc1ncc(-c2nc3cc(OC)ccc3o2)c2cc(NC(=O)C3CC3)nnc12 [Example 888, N-(5-(5-methoxybenzo[d]oxazol-2-yl)-8-(methylamino)pyrido[3,4-c]pyridazin-3-yl)cyclopropanecarboxamide]
Kd [1]: ≤ 0.1 µM
IC50 [2]: ≤ 0.5 µM

CNc1ncc(C#Cc2ccc(OC)cn2)c2c(Cl)c(NC(=O)C3CC3)ncc12 [Example 889, N-(4-chloro-5-((5-methoxypyridin-2-yl)ethynyl)-8-(methylamino)-2,7-naphthyridin-3-yl)cyclopropanecarboxamide]
Kd [1]: ≤ 0.1 µM
IC50 [2]: > 0.5 µM

CNc1ncc(-c2nc3cc(N4CCO[C@@H](C)C4)ccc3o2)c2cc(NC(=O)C3CC3)nnc12 [Example 890, (S)—N-(8-(methylamino)-5-(5-(2-methylmorpholino)benzo[d]oxazol-2-yl)pyrido[3,4-c]pyridazin-3-yl)cyclopropanecarboxamide]
Kd [1]: ≤ 0.1 µM
IC50 [2]: ≤ 0.5 µM

CNc1ncc(C#Cc2ccc(OC3CN(C(C)=O)C3)cc2)c2cc(NC(=O)C3CC3)nnc12 [Example 893, N-(5-((4-((1-acetylazetidin-3-yl)oxy)phenyl)ethynyl)-8-(methylamino)pyrido[3,4-c]pyridazin-3-yl)cyclopropanecarboxamide]
Kd [1]: ≤ 0.1 µM
IC50 [2]: ≤ 0.5 µM

CNc1ncc(C#Cc2ccc3c(c2)OCCO3)c2cc(NC(=O)C3CC3)ncc12 [Example 894, N-(5-((2,3-dihydrobenzo[b][1,4]dioxin-6-yl)ethynyl)-8-(methylamino)-2,7-naphthyridin-3-yl)cyclopropanecarboxamide]
Kd [1]: ≤ 0.1 µM
IC50 [2]: ≤ 0.5 µM

CNc1ncc(C#Cc2ccc3c(c2)OC=CO3)c2cc(NC(=O)C3CC3)ncc12 [Example 895, N-(5-(benzo[b][1,4]dioxin-6-ylethynyl)-8-(methylamino)-2,7-naphthyridin-3-yl)cyclopropanecarboxamide]
Kd [1]: ≤ 0.1 µM
IC50 [2]: ≤ 0.5 µM

CNc1ncc(C#Cc2ccc(C3CCN(C)C3=O)cc2)c2cc(NC(=O)C3CC3)ncc12 (stereo not shown) [Example 896, N-(5-((4-(1-methyl-2-oxopyrrolidin-3-yl)phenyl)ethynyl)-8-(methylamino)-2,7-naphthyridin-3-yl)cyclopropanecarboxamide]
Kd [1]: ≤ 0.1 µM
IC50 [2]: ≤ 0.5 µM

CNc1ncc(C#Cc2cn(C)c(C(F)(F)F)n2)c2cc(NC(=O)C3CC3)ncc12 [Example 897, N-(5-((1-methyl-2-(trifluoromethyl)-1H-imidazol-4-yl)ethynyl)-8-(methylamino)-2,7-naphthyridin-3-yl)cyclopropanecarboxamide]
Kd [1]: ≤ 0.1 µM
IC50 [2]: ≤ 0.5 µM
